Test results published in the supplement of paper PMC10307832.

How the values were obtained:
Experiment in all cases: relative viability (nuclei count vs DMSO), 5 days (fraction); higher = more cells survive
[1] = compound: CCOc1cc2ncc(C#N)c(Nc3ccc(OCc4ccccn4)c(Cl)c3)c2cc1NC(=O)/C=C/CN(C)C [Neratinib] + CC1(C)CCC(c2ccc(Cl)cc2)=C(CN2CCN(c3ccc(C(=O)NS(=O)(=O)c4ccc(N[C@H](CCN5CCOCC5)CSc5ccccc5)c(S(=O)(=O)C(F)(F)F)c4)cc3)CC2)C1 [Navitoclax] (partner 0.5 µM)
Summary of the method: (§1)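 Medians of duplicate plates are given as relative viability. That measure is the nuclei count in treated wells divided by the count in vehicle wells. Counts were taken on 4× images of lung cancer cell lines in 1536-well plates, 5 days after pin-tool dosing the day after seeding with one drug alone or a fixed anchor-drug dose plus five library-drug doses (not always all listed) in √10 steps.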

[2] = compound: CCOc1cc2ncc(C#N)c(Nc3ccc(OCc4ccccn4)c(Cl)c3)c2cc1NC(=O)/C=C/CN(C)C [Neratinib] + C[C@@H](Oc1cc(-c2cnn(C3CCNCC3)c2)cnc1N)c1c(Cl)ccc(F)c1Cl [Crizotinib] (partner 1 µM)
Summary of the method: as §1

[3] = compound: CCOc1cc2ncc(C#N)c(Nc3ccc(OCc4ccccn4)c(Cl)c3)c2cc1NC(=O)/C=C/CN(C)C [Neratinib] + Cc1cc(Nc2cc(N3CCN(C)CC3)nc(Sc3ccc(NC(=O)C4CC4)cc3)n2)n[nH]1 [Tozasertib] (partner 0.1 µM)
Summary of the method: as §1

[4] = compound: CCOc1cc2ncc(C#N)c(Nc3ccc(OCc4ccccn4)c(Cl)c3)c2cc1NC(=O)/C=C/CN(C)C [Neratinib] + O=C(CCCCCCC(=O)Nc1ccccc1)NO [Vorinostat] (partner 1 µM)
Summary of the method: as §1

Cell Line	relative viability ([1]; first compound 0.01 µM)	relative viability ([1]; first compound 0.03162 µM)	relative viability ([1]; first compound 0.1 µM)	relative viability ([1]; first compound 0.3162 µM)	relative viability ([1]; first compound 1 µM)	relative viability ([2]; first compound 0.03162 µM)	relative viability ([2]; first compound 0.1 µM)	relative viability ([2]; first compound 0.3162 µM)	relative viability ([2]; first compound 1 µM)	relative viability ([3]; first compound 0.01 µM)	relative viability ([3]; first compound 0.03162 µM)	relative viability ([3]; first compound 0.1 µM)	relative viability ([3]; first compound 0.3162 µM)	relative viability ([3]; first compound 1 µM)	relative viability ([4]; first compound 0.01 µM)	relative viability ([4]; first compound 0.03162 µM)	relative viability ([4]; first compound 0.1 µM)	relative viability ([4]; first compound 0.3162 µM)	relative viability ([4]; first compound 1 µM)	relative viability ([2]; first compound 0.01 µM)
PC-14	0.988	1.01	0.928	0.936	0.24	0.851	0.796	0.662	0.356	0.574	0.721	0.627	0.454	0.0727	0.773	0.754	0.557	0.359	0.0625	–
NCI-H2009	1.13	1.23	1.12	1.13	0.999	1.05	0.524	0.946	0.783	0.732	0.799	0.621	0.613	0.554	0.739	0.772	0.777	0.754	0.644	1.02
NCI-H1437	1.14	1.12	1.05	1	1.05	0.853	0.897	0.789	0.822	0.43	0.439	0.296	0.38	0.328	0.916	0.906	0.799	0.843	0.85	1.04
NCI-H647	1.14	1.41	1.05	1.12	0.383	0.978	0.852	0.835	0.427	0.281	0.333	0.155	0.195	0.174	0.634	0.595	0.488	0.401	0.0941	1.21
201T	1.26	1.19	1.18	1.22	1.25	0.974	0.861	1.06	0.959	1.14	0.945	0.848	0.858	0.766	0.978	0.95	0.783	0.969	0.849	1.08
ChaGo-K-1	0.986	1	1.02	0.821	0.905	1.24	1.14	1.02	0.845	0.233	0.224	0.221	0.215	0.229	0.9	0.814	0.675	0.799	0.799	1.3
NCI-H1650	1.26	1.35	1.1	1.07	1.06	1.03	0.705	0.568	0.623	0.362	0.359	0.292	0.31	0.204	0.381	0.615	0.49	0.419	0.447	0.922
LOU-NH91	0.682	0.582	0.517	0.374	0.279	0.669	0.588	0.501	0.479	0.635	0.665	0.527	0.503	0.411	0.936	–	0.748	–	0.609	0.735
HOP-62	–	1.07	1.1	0.996	1.1	1.05	0.806	0.932	0.958	0.444	0.354	0.33	0.369	0.32	0.608	0.691	0.586	–	0.72	1.07
NCI-H1915	0.764	0.862	0.757	0.736	0.744	0.931	0.864	0.811	0.725	0.42	0.475	0.402	0.39	0.346	0.6	0.553	0.507	0.439	0.545	0.973
NCI-H322M	1.18	1.17	0.558	0.701	0.627	1.02	0.791	0.659	0.291	0.502	0.47	0.451	0.33	0.284	0.98	0.859	0.822	0.524	0.445	–
NCI-H1651	1.2	1.17	0.878	0.84	0.742	0.944	0.86	0.846	0.564	0.743	0.792	0.543	0.58	0.312	0.605	0.582	0.505	0.508	0.513	0.927
RERF-LC-KJ	0.854	1.07	0.724	0.69	0.493	0.817	0.795	0.701	0.633	0.553	0.593	0.586	0.5	0.293	0.705	0.742	0.55	0.66	0.382	0.847
NCI-H1993	0.911	0.986	0.815	0.651	0.574	0.901	0.586	0.771	0.677	0.528	0.594	0.597	0.536	0.593	1.07	0.795	0.423	0.676	0.574	0.859
NCI-H460	1.37	1.3	–	1.11	0.441	0.743	–	0.641	0.355	0.587	0.546	0.378	0.268	0.0381	0.779	0.984	0.429	0.716	0.518	1.2
NCI-H838	1.21	1.22	0.972	0.995	0.588	0.812	0.833	0.67	0.476	0.274	0.291	0.241	0.267	0.22	–	0.794	0.705	0.735	0.619	0.995
